Laboratory results as given in US5030760A, “Tetrahydrophthalimides, and their production and use” (Sumitomo Chemical Company, Ltd., priority 1981, dated 1991).

Experiments:
velvetleaf [1] = test: Test Example 4, pre-emergence treatment, herbicidal activity; format: in vivo, Abutilon theophrasti; conditions: 20 days; also: ranges in brackets are in %
Outline: (§1)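 Values are rating scores from shoot fresh weight versus untreated plants, taken 20 days after a pre-emergence spray of an emulsifiable concentrate onto sown upland soil.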

velvetleaf [2] = test: Test Example 5, spraying over the top, herbicidal activity; format: in vivo, Abutilon theophrasti; conditions: sprayed over the top, 20 days; also: ranges in brackets are in %
Experimental: (§2) The application of the tetrahydrophthalimides (I) as herbicides will be illustratively shown in the following Examples wherein the phytotoxicity to cultivated plants and the herbicidal activity on weeds were evaluated as follows: the aerial parts of the test plants were cut off and weighed (fresh weight); the percentage of the fresh weight of the treated plant to that of the untreated plant was calculated with the latter fresh weight taken as 100; and the crop damage and the herbicidal activity were evaluated by the standard given in the table below. The rating values of phytotoxicity, 0 and 1, and those of herbicidal effect, 5 and 4, are generally regarded as satisfactory to protect cultivated plants and control weeds, respectively. The rating values in the paddy field test alone were calculated from the dry weight of the test plants.
(§3) Plastic trays (35 cm×25 cm×15 cm) were filled with upland field soil, and the seeds of tall morningglory, velvetleaf, jimsonweed, sicklepod, hemp sesbania, prickly side, Johnsongrass, green foxtail and large crabgrass and the seeds of soybean were sown therein. A designed amount of the test compound formulated into a wettable powder according to Preparation Example 1 and dispersed in water was sprayed over the top by means of a small hand sprayer at a spray volume of 5 liters per are. After the spraying, the test plants were grown in greenhouse for 20 days, and phytotoxicity and herbicidal activity were examined.

common purslane = test: Test Example 2, field foliar treatment, herbicidal activity; format: in vivo, Portulaca oleracea; conditions: 3 weeks; also: ranges in brackets are in %
Experimental: as §2
Seeds of corn and broad-leaved weeds such as cocklebur, common purslane and tall morningglory were sown in the field as previously laid up in ridges, each ridge having an upper width of 1 m. At the time when the corn grew up to the 6-leaf stage and the broad-leaved weeds up to 2 to 5-leaf stages, a designed amount of the test compound formulated into an emulsifiable concentrate according to Preparation Example 2 and dispersed in water was sprayed to the foliage of the test plants with three replications over the top by means of a small hand sprayer at a spray volume of 5 liters per are. After cultivation for 3 weeks, herbicidal activity and phytotoxicity were examined.

Johnsongrass = test: Test Example 5, spraying over the top, herbicidal activity; format: in vivo, Sorghum halepense; conditions: sprayed over the top, 20 days; also: ranges in brackets are in %
Experimental: as §2, §3

tall morningglory = test: Test Example 3, soil surface spraying, herbicidal activity; format: in vivo, Ipomoea purpurea; conditions: 20 days; also: ranges in brackets are in %
Experimental: as §2
(§4) Plastic trays (35 cm×25 cm×15 cm) were filled with upland field soil, and the seeds of tall morningglory, velvetleaf and sicklepod and the seeds of corn were sown therein. A designed amount of the test compounds formulated into a wettable powder according to Preparation Example 1 was dispersed in water and applied by spraying at a spray volume of 5 liters per are to the whole surface of the soil. After the spraying, the test plants were placed in a greenhouse and grown for 20 days, and herbicidal activity and phytotoxicity were examined.

velvetleaf [3] = test: Test Example 1, foliar treatment, herbicidal activity; format: in vivo, Abutilon theophrasti; conditions: 3 weeks; also: ranges in brackets are in %
Outline: (§5)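 Plants were sown in upland soil and grown 2 weeks in a greenhouse, then sprayed on the foliage with the compound as an emulsifiable concentrate dispersed in water with a spreading agent (5 liters per are). After 3 further weeks, aerial fresh weight relative to untreated (taken as 100) was converted to a rating.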

prickly sida = test: Test Example 5, spraying over the top, herbicidal activity; format: in vivo, Sida spinosa; conditions: sprayed over the top, 20 days; also: ranges in brackets are in %
Experimental: as §2, §3

morningglory = test: Test Example 4, pre-emergence treatment, herbicidal activity; format: in vivo; conditions: 20 days; also: ranges in brackets are in %
Outline: as §1

sicklepod [4] = test: Test Example 3, soil surface spraying, herbicidal activity; format: in vivo, Cassia obtusifolia; conditions: 20 days; also: ranges in brackets are in %
Experimental: as §2, §4

monochoria = test: Test Example 7, flooded paddy pot dripping, herbicidal activity; format: in vivo, Monochoria vaginalis; conditions: 3 weeks; also: ranges in brackets are in %
Experimental: as §2
Wagner's pots (1/5000 are) were filled with paddy field soil and water was poured therein to make a flooded condition. Rice seedlings of the 3-leaf stage were transplanted and tubers of slender spikerush and arrowhead and the seeds of barnyardgrass, monochoria and broad-leaved weed were sowed therein and grown for 5 days. When germination occurs, a designed amount of the test compound formulated into an emulsifiable concentrate according to Preparation Example 2 was applied to the pots by dripping. The test plants were grown for a further 3 weeks, and herbicidal activity and phytotoxicity were examined. The herbicidal activity was evaluated in figures ranging from 0 to 5. The phytotoxicity to the crop plants was also indicated on the same standard as that of the herbicidal activity.

barnyardgrass = test: Test Example 6, paddy pot perfusion, herbicidal activity; format: in vivo, Echinochloa crus-galli; conditions: 3 weeks, dry weight; also: ranges in brackets are in %
Experimental: as §2
Wagner's pots (1/5000 are) were filled with paddy field soil containing the seeds of broad-leaved weeds (e.g. monochoria, false pimpernel, toothcup) and the seeds of barnyardgrass and hardstem bulrush, and water was poured therein until the depth of water became 4 cm. Rice seedlings of the 3.5-leaf stage and the tubers of arrowhead were transplanted therein and grown for 2 days in a greenhouse. A designed amount of the test compound formulated in an emulsifiable concentrate according to Preparation Example 2 was applied to the pots by perfusion. Thereafter, the test plants were grown for an additional 3 weeks in the greenhouse, and herbicidal activity and phytotoxicity were examined. In this treatment, the emulsifiable concentrate was dispersed in water for application at a perfusion volume of 10 liters per are.

corn = test: Test Example 1, foliar treatment, phytotoxicity to corn; format: in vivo; conditions: 3 weeks; also: ranges in brackets are in %
Outline: as §5

wild oat = test: Test Example 1, foliar treatment, herbicidal activity; format: in vivo, Avena fatua; conditions: 3 weeks; also: ranges in brackets are in %
Outline: as §5

wild mustard = test: as above; format: in vivo, Brassica kaber; conditions: 3 weeks
Outline: as §5

sicklepod [5] = test: Test Example 5, spraying over the top, herbicidal activity; format: in vivo, Cassia obtusifolia; conditions: sprayed over the top, 20 days; also: ranges in brackets are in %
Experimental: as §2, §3

SMILES	Herbicidal activity, Velvetleaf (velvetleaf [2]; 10 g/are)	Herbicidal activity, Velvetleaf (velvetleaf [2]; 20 g/are)	Herbicidal activity, Common purslane (common purslane; 0.63 g/are)	Herbicidal activity, Common purslane (common purslane; 1.25 g/are)	Herbicidal activity, Johnsongrass (Johnsongrass; 10 g/are)	Herbicidal activity, Johnsongrass (Johnsongrass; 20 g/are)	Herbicidal activity, Tall morningglory (tall morningglory; 5 g/are)	Herbicidal activity, Tall morningglory (tall morningglory; 10 g/are)	Herbicidal activity, Velvetleaf (velvetleaf [3]; 1.25 g/are)	Herbicidal activity, Velvetleaf (velvetleaf [3]; 5 g/are)	Herbicidal activity, Prickly sida (prickly sida; 10 g/are)	Herbicidal activity, Prickly sida (prickly sida; 20 g/are)	Herbicidal activity, Sicklepod (sicklepod [4]; 5 g/are)	Herbicidal activity, Sicklepod (sicklepod [4]; 10 g/are)	Herbicidal activity, Barnyardgrass (barnyardgrass; 1.25 g/are)	Herbicidal activity, Barnyardgrass (barnyardgrass; 2.5 g/are)	Phytotoxicity, Corn (corn; 1.25 g/are)	Phytotoxicity, Corn (corn; 5 g/are)	Herbicidal activity, Wild cat (wild oat; 1.25 g/are)	Herbicidal activity, Wild cat (wild oat; 5 g/are)	also measured
O=C1C2=C(CCCC2)C(=O)N1c1ccc(Cl)cc1F [A, 2-fluoro-4-chlorophenyltetrahydrophthalimide, reference compound]	5 (0)	5 (0)	2 (21-40)	3 (11-20)	4 (1-10)	5 (0)	0 (61-100)	0 (61-100)	5 (0)	5 (0)	5 (0)	5 (0)	0 (61-100)	1 (41-60)	1 (41-60)	2 (21-40)	1 (90-99)	2 (80-89)	0 (61-100)	1 (41-60)	Herbicidal activity, Velvetleaf (velvetleaf [1]; 2.5 g/are): 4 (1-10); Herbicidal activity, Velvetleaf (velvetleaf [1]; 10 g/are): 5 (0); Herbicidal activity, Morningglory (morningglory; 2.5 g/are): 1 (41-60); Herbicidal activity, Morningglory (morningglory; 10 g/are): 2 (21-40); Herbicidal activity, Monochoria (monochoria; 2.5 g/are): 4 (70-89); Herbicidal activity, Monochoria (monochoria; 5 g/are): 5 (90-100); Herbicidal activity, Monochoria (monochoria; 10 g/are): 5 (90-100); Herbicidal activity, Wild mustard (wild mustard; 1.25 g/are): 3 (11-20); Herbicidal activity, Wild mustard (wild mustard; 5 g/are): 5 (0); Herbicidal activity, Sicklepod (sicklepod [5]; 10 g/are): 1 (41-60); Herbicidal activity, Sicklepod (sicklepod [5]; 20 g/are): 2 (21-40)
CC(C)Oc1cc(N2C(=O)C3=C(CCCC3)C2=O)c(Cl)cc1Cl [B, 2,4-dichloro-5-isopropoxyphenyltetrahydrophthalimide, reference compound]	4 (1-10)	5 (0)	3 (11-20)	4 (1-10)	2 (21-40)	3 (11-20)	0 (61-100)	0 (61-100)	5 (0)	5 (0)	3 (11-20)	4 (1-10)	0 (61-100)	1 (41-60)	1 (41-60)	3 (11-20)	0 (100)	1 (90-99)	0 (61-100)	1 (41-60)	Herbicidal activity, Velvetleaf (velvetleaf [1]; 5 g/are): 1 (41-60); Herbicidal activity, Velvetleaf (velvetleaf [1]; 20 g/are): 3 (11-20); Herbicidal activity, Morningglory (morningglory; 5 g/are): 0 (61-100); Herbicidal activity, Morningglory (morningglory; 20 g/are): 1 (41-60); Herbicidal activity, Wild mustard (wild mustard; 1.25 g/are): 2 (21-40); Herbicidal activity, Wild mustard (wild mustard; 5 g/are): 3 (11-20); Herbicidal activity, Sicklepod (sicklepod [5]; 10 g/are): 0 (61-100); Herbicidal activity, Sicklepod (sicklepod [5]; 20 g/are): 2 (21-40)
